{"source": "paper PMC7613515", "about": "“Reading and erasing of the phosphonium analogue of trimethyllysine by epigenetic proteins” (Communications Chemistry, 2022)", "molecular_target": "T1, KDM4ATTD (JMJD2A, Q897-P1011) (Homo sapiens, UniProt O75164)", "T1 construct": "KDM4ATTD (JMJD2A, Q897-P1011); made in house; host or cells: E. coli", "T1 sequence (O75164 897-1011)": "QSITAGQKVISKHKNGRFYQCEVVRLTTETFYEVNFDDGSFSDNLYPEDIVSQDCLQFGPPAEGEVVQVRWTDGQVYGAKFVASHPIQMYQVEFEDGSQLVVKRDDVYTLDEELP", "assay": "ITC, association of histone H3 peptides with KDM4ATTD", "format": "binding", "text": "We investigated the thermodynamics of association of the H3KP4me3 peptide with five representative human reader domains containing either a PHD zinc finger or TTD, i.e. KDM5APHD3 (JARID1A-PHD3, residues M1489–V1641)[10], TAF3PHD (R857–K924)[22], BPTFPHD (L2583–N2751)[23], SGF29TTD (R115–K293)[24] and KDM4ATTD (JMJD2A, Q897-P1011)[25], selected on the basis of their preference for binding Ν^ε-trimethyllysine over other (non)methylation marks (Kme0 < Kme1 < Kme2 < Kme3), and their domain and aromatic cage diversity. The recombinant readers were produced in E. coli following reported procedures. Isothermal titration calorimetric (ITC) analyses were used to determine the dissociation constant (Kd), the Gibbs free energy of binding (ΔG°), the enthalpy of binding (ΔH°), and the entropy of binding (ΔS°). […] (Table 1, Fig. 2, Supplementary Fig. 1).\nThe following purified reader domains: TAF3PHD (R857-K924), KDM5APHD3 (JARID1A, M1489-V1641), BPTFPHD (L2583-N2751), KDM4ATTD (JMJD2A, Q897-P1011) and SGF29TTD (R115-K293) were prepared as reported[10],[22]–[26]. The histone lysine demethylase were produced and purified to high purity via reported procedures KDM3A (JMJD1A, T515-S1317)[41], KDM4AJmjC[39] (JMJD2A, M1-L359), KDM4EJmjC (JMJD2E, M1–Q337)[34] and KDM7B[40] (PHF8, M37-N483 [NP_001171]). KDM5DJmjC was produced using an N-terminal hexa-His tagged KDM4D (KDM4DM1-L358) DNA construct, transformed into BL21(DE3) competent cells for recombinant protein production. Colonies were used to inoculate of LB media (50 mL) containing kanamycin (50 µg·mL^−1) and chloramphenicol (34 µg·mL^−1), which was placed in a 37 °C shaker overnight. The starter culture (10 mL) was used to inoculate TB media (6 × 1 L) containing kanamycin (50 µg·mL^−1) in 2 L baffled shaker flasks. After reaching an of OD600 of ~0.8, the temperature was reduced to 18 °C; at OD600 ~0.9 the cells were induced by the IPTG (0.5 mM) addition. After shaking overnight, the culture was centrifuged (5000 rpm, 10 mins), the media was decanted, and the cell pellet was suspended in Lysis Buffer [HEPES (50 mM), NaCl (500 mM), imidazole (20 mM), glycerol (5%) and TCEP (0.5 mM) in water (pH 7.4)]. The suspension was lysed by passaging through a high-pressure cell breaker (Avestin – EmulsiFlex-C5) for three rounds. The lysate was cleared by centrifugation (60 minutes, 36,000 × g, 4 °C), then loaded onto a Ni NTA gravity column. After extensive rinsing of the Ni-NTA gravity column with lysis buffer, the His-tagged protein was eluted in lysis buffer containing 300 mM imidazole. The eluted protein was concentrated and subjected to gel filtration chromatography using an AKTA Xpress system, an S200 16/600 gel filtration column, and GF buffer [HEPES (50 mM), NaCl (150 mM), glycerol (5%) and TCEP (0.5 mM) in water (pH 7.4)]. The protein identity was verified by LC-MS (ESI-TOF) observing a mass of 43759.7 Da, in accord with the predicted mass of 43751.6 Da.\nITC studies followed a reported procedure. The buffer used corresponded to that used in the final protein purification step. Briefly, TAF3PHD and KDM4ATTD: [Tris (50 mM) in water (pH 7.5)]; KDM5APHD3 and BTPFPHD: [Tris (50 mM), NaCl (20 mM) in water (pH 7.5)]; [Tris (25 mM), NaCl (50 mM), 1,4-dithiothreitol (1.0 mM) in water (pH 7.5)]. Experiments were conducted using ITC200 automated (GE Healthcare Life Sciences, USA) instrument at 25 °C. Histone peptide titrations were performed with the same reader batches. Solutions of the reader in buffer (25–40 µM) and of the histone H3 peptide (350–600 µM) in buffer were prepared. The prepared solutions were plated into a 96-well plate and inserted into the instrument for analysis. Experiments were performed according to manufacturer’s default settings: Plate pre-rinse syringe clean. A total of 19 injections were performed; each experiment was repeated 3–5 times. Heats of dilution for histone peptides determined in control experiments were subtracted from the titration binding data. […]", "key": {"[1]": {"conditions": "25 °C, H3 1-10 peptide, Tris (50 mM), pH 7.5, from 3 to 5 experiments, ± SD"}}}
{"smiles": "C[C@H](N)C(=O)N[C@@H](CCCNC(=N)N)C(=O)N[C@H](C(=O)N[C@@H](CCCC[P+](C)(C)C)C(=O)N[C@@H](CCC(N)=O)C(=O)N[C@H](C(=O)N[C@@H](C)C(=O)N[C@@H](CCCNC(=N)N)C(=O)N[C@@H](CCCCN)C(=O)N[C@@H](CO)C(N)=O)[C@@H](C)O)[C@@H](C)O", "note": "[H3KP4me3]", "values": [{"measurement": "-TΔS°", "setting": "[1]", "value": "8.8 ± 0.1", "unit": "kcal/mol"}, {"measurement": "ΔG°", "setting": "[1]", "value": "-8.9 ± 0.1", "unit": "kcal/mol"}, {"measurement": "ΔH°", "setting": "[1]", "value": "-17.7 ± 0.1", "unit": "kcal/mol"}, {"measurement": "fold stronger binding (ΔKd), H3KP4me3 versus H3K4me3", "setting": "KDM4ATTD", "value": "~ 12 fold"}, {"measurement": "ΔΔH°, H3KP4me3 relative to H3K4me3", "setting": "KDM4ATTD", "value": -4.7, "unit": "kcal/mol"}]}
